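How tested: cells in 96-well plates exposed to compound for 48 hours at five concentrations. At the GI50, growth is halved. At the TGI there is no net growth.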
Each compound was assayed on M14 melanoma (assay: DTP human tumour cell line panel, 48 h).

Compound | TGI | GI50
Cc1c(O)c(O)cc[n+]1C1OC(CO)C(O)C1O (configuration not stated) | > 100 µM | 
C=C1C(=O)O[C@@H]2C(=O)[C@@H](C)CCC/C(C)=C/CC[C@@]3(C)O[C@@H]3C[C@@H]12 | > 100 µM | 
CC1CCC(n2c3cnccc3c3cnc(Nc4ccc5c(n4)CCN(C(=O)CO)C5)nc32)CC1 (configuration not stated) | > 100 µM | 0.681 µM
COc1ccc(-c2cc(O)c3nc4ccccc4n3c2)cc1 | > 100 µM | 
ClCCN1CCC2(CC1)SSC1(CCN(CCCl)CC1)S2 | > 100 µM | 
C1CN(c2nc3c(nnc4nc(N5CCOCC5)sc43)s2)CCO1 | > 100 µM | 
CCCCC#C[I+]c1ccccc1 | 29 µM | 
Nc1nc(SCCc2ccccc2)c2[nH]cnc2n1 | > 100 µM | 
Cc1ccc(-c2n[nH]c(=O)n2N2C(=O)c3ccccc3C2=O)cc1 | > 100 µM | 
COc1ccc(C2CC(c3c(O)ccc4ccccc34)=NN2C(C)=O)cc1OC (configuration not stated) | 69.4 µM | 
COc1ccc2cc(NC(=O)N/N=C\c3ccc([N+](=O)[O-])cc3)ccc2c1 | > 100 µM | 
C[C@@H]1CC[C@]2(C(=O)O)CC[C@]3(C)C(=CC[C@@H]4[C@@]5(C)CC[C@H](O)C(C)(C)[C@@H]5CC[C@]43C)[C@@H]2[C@]1(C)O | 8.1 µM | 
O=C1CCCSC(=O)N1Cc1ccccc1 | > 100 µM | 
CC(C)(C)OC(=O)N[C@H]1CCN(C2CCCCC2)C1=O | > 100 µM | 
CCCN(C(=O)c1ccccc1)C(C#N)c1ccc(C(C#N)N(CCC)C(=O)c2ccccc2)cc1 (configuration not stated) | > 100 µM | 
N#Cc1c(-c2ccccc2)/c(=C\Nc2cccc(C(F)(F)F)c2)c(=O)n2c1nc1ccccc12 | > 100 µM | 
S=C1Nc2ccccc2SC1c1ccccc1 (configuration not stated) | > 100 µM | 
O=C1/C(=C/c2ccccc2)N=C2Sc3c(nc[nH]c3=O)N12 | > 100 µM | 
C=CC1(C)CCC2C(=CCC3C2(C)CC(O)C(O)C3(C)COC2OC(C(=O)O)C(O)C(O)C2O)C1 (configuration not stated) (tested in a mixture with another compound) | > 100 µM | 
O=c1ccc(-c2ccccc2)n[nH]1 | > 100 µM | 
CC(C)=CCc1c2c(c3occ(-c4ccc(O)cc4)c(=O)c3c1O)CC(C(C)(C)O)O2 (configuration not stated) | 28.2 µM | 
COc1ccc(-c2c(C#N)c(-c3ccc(C)cc3)n(NS(=O)(=O)c3ccc(C)cc3)c(=O)c2C#N)cc1 | > 100 µM | 
O=[N+]([O-])c1ccc2c(c1)c(OCc1ccccc1)nn2Cc1ccccc1 | > 100 µM | 
C#CCNC(CS)C(=O)O (configuration not stated) | > 100 µM | 
O=C1CCCc2cc3c(cc21)CC1(Cc2ccccc2C1)C3 | 25.3 µM | 
Cc1ccc(Cl)c2[nH]c(-c3ccccc3)cc(=O)c12 | > 100 µM | 
COc1ccc2c(c1)/C(=C/CCN(C)C)c1ccccc1S2 | > 100 µM | 
NS(=O)(=O)c1ccc2c(c1)OCCOCCOCCOCCO2 | > 100 µM | 
CCOC(=O)/C=C/CC(C)(C)CCOC(C)=O | > 10 µM | 

These compounds were tested on U251 CNS (assay: DTP human tumour cell line panel, 48 h).

Compound | TGI | GI50
O=C1CSC(c2ccc(Cl)cc2)N1c1ccc(Oc2ccc(Cl)cc2)c(Cl)c1 (configuration not stated) | 36.2 µM | 
COC(CCC[N+](C)(C)C)CC[N+](C)(C)C (configuration not stated) | > 100 µM | 
CCC(C(=O)O)c1ccc(OC)cc1 (configuration not stated) | > 100 µM | 
Nc1nc(Cl)cc(NCC2(CO)CC(=O)C2)n1 | > 100 µM | 
CO/C(=N\N=C\c1ccc(C(F)(F)F)cc1)c1ccncc1 | > 10 µM | 
Cc1c(O)c(O)cc[n+]1C1OC(CO)C(O)C1O (configuration not stated) | > 100 µM | 
C=C1C(=O)O[C@@H]2C(=O)[C@@H](C)CCC/C(C)=C/CC[C@@]3(C)O[C@@H]3C[C@@H]12 | > 100 µM | 
CC1CCC(n2c3cnccc3c3cnc(Nc4ccc5c(n4)CCN(C(=O)CO)C5)nc32)CC1 (configuration not stated) | > 100 µM | 0.478 µM
O=C(NC(=O)c1ccccc1[N+](=O)[O-])Nc1ccc(Oc2ncc(Br)cn2)c(Cl)c1 | > 64.4 µM | < 0.0185 µM
COc1ccc(-c2cc(O)c3nc4ccccc4n3c2)cc1 | > 100 µM | 
ClCCN1CCC2(CC1)SSC1(CCN(CCCl)CC1)S2 | > 100 µM | 
C1CN(c2nc3c(nnc4nc(N5CCOCC5)sc43)s2)CCO1 | > 100 µM | 
C1=C2/CC[C@H](Sc3ccccc3)C2C2(CCCCC/1)OCCO2 (some centres not stated) | > 100 µM | 
CCCCC#C[I+]c1ccccc1 | 29.9 µM | 
Nc1nc(SCCc2ccccc2)c2[nH]cnc2n1 | > 100 µM | 
Cc1ccc(-c2n[nH]c(=O)n2N2C(=O)c3ccccc3C2=O)cc1 | > 100 µM | 
COc1ccc(C2CC(c3c(O)ccc4ccccc34)=NN2C(C)=O)cc1OC (configuration not stated) | > 100 µM | 
COc1ccc2cc(NC(=O)N/N=C\c3ccc([N+](=O)[O-])cc3)ccc2c1 | > 100 µM | 

Compound | TGI | GI50
C[C@@H]1CC[C@]2(C(=O)O)CC[C@]3(C)C(=CC[C@@H]4[C@@]5(C)CC[C@H](O)C(C)(C)[C@@H]5CC[C@]43C)[C@@H]2[C@]1(C)O | 27.3 µM | 
CC(C)(C)OC(=O)N[C@H]1CCN(C2CCCCC2)C1=O | > 100 µM | 
CCCN(C(=O)c1ccccc1)C(C#N)c1ccc(C(C#N)N(CCC)C(=O)c2ccccc2)cc1 (configuration not stated) | > 100 µM | 
N#Cc1c(-c2ccccc2)/c(=C\Nc2cccc(C(F)(F)F)c2)c(=O)n2c1nc1ccccc12 | > 100 µM | 
S=C1Nc2ccccc2SC1c1ccccc1 (configuration not stated) | > 100 µM | 
c1ccc(N=c2sc3ccccc3nc2Nc2ccccc2)cc1 | > 100 µM | 
O=C1/C(=C/c2ccccc2)N=C2Sc3c(nc[nH]c3=O)N12 | > 100 µM | 
C=CC1(C)CCC2C(=CCC3C2(C)CC(O)C(O)C3(C)COC2OC(C(=O)O)C(O)C(O)C2O)C1 (configuration not stated) (tested in a mixture with another compound) | > 100 µM | 
N#CC1(C#N)N[C@@H](c2ccsc2)[C@H]2C(=O)N(c3ccccc3)C(=O)[C@H]21 | > 100 µM | 
O=C(CCN1CCCCC1)C(=Cc1ccccc1)C(=O)CCN1CCCCC1 | > 100 µM | 3.04 µM
O=c1ccc(-c2ccccc2)n[nH]1 | > 100 µM | 
CC(C)=CCc1c2c(c3occ(-c4ccc(O)cc4)c(=O)c3c1O)CC(C(C)(C)O)O2 (configuration not stated) | 25.9 µM | 
COc1ccc(-c2c(C#N)c(-c3ccc(C)cc3)n(NS(=O)(=O)c3ccc(C)cc3)c(=O)c2C#N)cc1 | > 100 µM | 
C#CCNC(CS)C(=O)O (configuration not stated) | > 100 µM | 
O=C1CCCc2cc3c(cc21)CC1(Cc2ccccc2C1)C3 | 64 µM | 
Cc1ccc(Cl)c2[nH]c(-c3ccccc3)cc(=O)c12 | > 100 µM | 
COc1ccc2c(c1)/C(=C/CCN(C)C)c1ccccc1S2 | > 100 µM | 
CCOC(=O)/C=C/CC(C)(C)CCOC(C)=O | > 10 µM | 

The compounds below were run on HT29 colon (assay: DTP human tumour cell line panel, 48 h).

Compound | TGI | GI50
O=C1CSC(c2ccc(Cl)cc2)N1c1ccc(Oc2ccc(Cl)cc2)c(Cl)c1 (configuration not stated) | 36.3 µM | 
COC(CCC[N+](C)(C)C)CC[N+](C)(C)C (configuration not stated) | > 100 µM | 
CCC(C(=O)O)c1ccc(OC)cc1 (configuration not stated) | > 100 µM | 
Nc1nc(Cl)cc(NCC2(CO)CC(=O)C2)n1 | > 100 µM | 
CO/C(=N\N=C\c1ccc(C(F)(F)F)cc1)c1ccncc1 | > 10 µM | 
Cc1c(O)c(O)cc[n+]1C1OC(CO)C(O)C1O (configuration not stated) | > 100 µM | 
C=C1C(=O)O[C@@H]2C(=O)[C@@H](C)CCC/C(C)=C/CC[C@@]3(C)O[C@@H]3C[C@@H]12 | 31.1 µM | 
CC1CCC(n2c3cnccc3c3cnc(Nc4ccc5c(n4)CCN(C(=O)CO)C5)nc32)CC1 (configuration not stated) | > 100 µM | 0.596 µM
O=C(NC(=O)c1ccccc1[N+](=O)[O-])Nc1ccc(Oc2ncc(Br)cn2)c(Cl)c1 | 0.0568 µM | 
COc1ccc(-c2cc(O)c3nc4ccccc4n3c2)cc1 | > 100 µM | 
ClCCN1CCC2(CC1)SSC1(CCN(CCCl)CC1)S2 | > 100 µM | 
C1CN(c2nc3c(nnc4nc(N5CCOCC5)sc43)s2)CCO1 | > 100 µM | 
C1=C2/CC[C@H](Sc3ccccc3)C2C2(CCCCC/1)OCCO2 (some centres not stated) | 28 µM | 
CCCCC#C[I+]c1ccccc1 | 32 µM | 
Nc1nc(SCCc2ccccc2)c2[nH]cnc2n1 | > 100 µM | 
Cc1ccc(-c2n[nH]c(=O)n2N2C(=O)c3ccccc3C2=O)cc1 | > 100 µM | 
COc1ccc(C2CC(c3c(O)ccc4ccccc34)=NN2C(C)=O)cc1OC (configuration not stated) | > 100 µM | 
COc1ccc2cc(NC(=O)N/N=C\c3ccc([N+](=O)[O-])cc3)ccc2c1 | > 100 µM | 

Compound | TGI | GI50
O=C1CCCSC(=O)N1Cc1ccccc1 | > 100 µM | 
CCCN(C(=O)c1ccccc1)C(C#N)c1ccc(C(C#N)N(CCC)C(=O)c2ccccc2)cc1 (configuration not stated) | > 100 µM | 
S=C1Nc2ccccc2SC1c1ccccc1 (configuration not stated) | > 100 µM | 
c1ccc(N=c2sc3ccccc3nc2Nc2ccccc2)cc1 | > 100 µM | 
O=C1/C(=C/c2ccccc2)N=C2Sc3c(nc[nH]c3=O)N12 | > 100 µM | 
C=CC1(C)CCC2C(=CCC3C2(C)CC(O)C(O)C3(C)COC2OC(C(=O)O)C(O)C(O)C2O)C1 (configuration not stated) (tested in a mixture with another compound) | > 100 µM | 
N#CC1(C#N)N[C@@H](c2ccsc2)[C@H]2C(=O)N(c3ccccc3)C(=O)[C@H]21 | > 100 µM | 
O=C(CCN1CCCCC1)C(=Cc1ccccc1)C(=O)CCN1CCCCC1 | > 100 µM | 76.3 µM
O=c1ccc(-c2ccccc2)n[nH]1 | > 100 µM | 
CC(C)=CCc1c2c(c3occ(-c4ccc(O)cc4)c(=O)c3c1O)CC(C(C)(C)O)O2 (configuration not stated) | 25.8 µM | 
COc1ccc(-c2c(C#N)c(-c3ccc(C)cc3)n(NS(=O)(=O)c3ccc(C)cc3)c(=O)c2C#N)cc1 | > 100 µM | 
O=[N+]([O-])c1ccc2c(c1)c(OCc1ccccc1)nn2Cc1ccccc1 | > 100 µM | 
C#CCNC(CS)C(=O)O (configuration not stated) | > 100 µM | 
O=C1CCCc2cc3c(cc21)CC1(Cc2ccccc2C1)C3 | 8.6 µM | 
Cc1ccc(Cl)c2[nH]c(-c3ccccc3)cc(=O)c12 | > 100 µM | 
COc1ccc2c(c1)/C(=C/CCN(C)C)c1ccccc1S2 | > 100 µM | 
NS(=O)(=O)c1ccc2c(c1)OCCOCCOCCOCCO2 | > 100 µM | 
CCOC(=O)/C=C/CC(C)(C)CCOC(C)=O | > 10 µM | 

From PubChem BioAssay (NCI)
